Test: xn = mol fraction of the nth substance listed

CC(=O)[O-].Cn1cc[nH+]c1 + O
Details | electrical conductivity [S/m] | viscosity [mPa·s]
293.15 K, 101.3 kPa, x2 = 0.0705 | 0.905 | –
293.15 K, 101.3 kPa, x2 = 0.1339 | 1.176 | –
293.15 K, 101.3 kPa, x2 = 0.8407 | 8.771 | –
293.15 K, 101.3 kPa, x2 = 0.9035 | 6.875 | –
298.15 K, 101 kPa, x1 = 0.0051 | 1.17 | –
298.15 K, 101 kPa, x1 = 0.0151 | 2.49 | –
298.15 K, 101 kPa, x2 = 0.9502 | 3.87 | –
298.15 K, 101 kPa, x2 = 0.98 | 2.71 | –
303.15 K, 101 kPa, x2 = 0 | – | 5.91
313.15 K, 101 kPa, x2 = 0 | – | 4.395

CCCCCCCCn1cc[n+](C)c1C.[Cl-] + O
298 K, 101 kPa
Details | electrical conductivity [S/m]
x1 = 2.703e-05 | 0.02
x1 = 0.0001369 | 0.09
x1 = 0.000245 | 0.14
x1 = 0.0003531 | 0.2
x1 = 0.0004899 | 0.27
x1 = 0.0007347 | 0.32
x1 = 0.0008984 | 0.41
x1 = 0.001197 | 0.48
x1 = 0.001468 | 0.58
x1 = 0.001766 | 0.69
x1 = 0.002039 | 0.79
x1 = 0.002391 | 0.88
x1 = 0.002715 | 0.99
x1 = 0.003203 | 1.14
x1 = 0.003772 | 1.32
x1 = 0.004474 | 1.48
x1 = 0.005202 | 1.66
x1 = 0.005876 | 1.77
x1 = 0.006575 | 1.9
x1 = 0.007219 | 2.02
x1 = 0.007783 | 2.11
x1 = 0.008319 | 2.19
x1 = 0.0088 | 2.26
x1 = 0.009202 | 2.34
x1 = 0.009496 | 2.39

CCCCCC[n+]1ccn(C)c1.C[C@H](N)C(=O)[O-] + O
viscosity [mPa·s], 100 kPa
Details | 288.15 K | 293.15 K | 298.15 K | 303.15 K | 308.15 K | 313.15 K | 318.15 K | 323.15 K | 328.15 K
x1 = 0.000299 | 1.156 | 1.017 | 0.902 | 0.809 | 0.728 | 0.661 | 0.603 | 0.554 | 0.512
x1 = 0.0003981 | 1.162 | 1.022 | 0.907 | 0.813 | 0.732 | 0.664 | 0.606 | 0.557 | 0.514
x1 = 0.0004989 | 1.167 | 1.026 | 0.911 | 0.816 | 0.735 | 0.666 | 0.608 | 0.559 | 0.516
x1 = 0.0009991 | 1.203 | 1.057 | 0.937 | 0.838 | 0.755 | 0.684 | 0.626 | 0.573 | 0.53
x1 = 0.003 | 1.361 | 1.191 | 1.05 | 0.933 | 0.833 | 0.754 | 0.684 | 0.626 | 0.576
x1 = 0.00499 | 1.512 | 1.325 | 1.162 | 1.027 | 0.916 | 0.825 | 0.745 | 0.681 | 0.625
x1 = 0.006965 | 1.656 | 1.445 | 1.272 | 1.118 | 0.997 | 0.893 | 0.805 | 0.736 | 0.672
x1 = 0.008965 | 1.819 | 1.573 | 1.367 | 1.202 | 1.069 | 0.958 | 0.866 | 0.781 | 0.717
x1 = 0.01103 | 1.954 | 1.694 | 1.475 | 1.287 | 1.145 | 1.026 | 0.928 | 0.831 | 0.763
x1 = 0.01294 | 2.097 | 1.814 | 1.577 | 1.377 | 1.223 | 1.087 | 0.984 | 0.887 | 0.807
x1 = 0.01501 | 2.242 | 1.953 | 1.69 | 1.466 | 1.303 | 1.161 | 1.035 | 0.936 | 0.854
x1 = 0.01801 | 2.455 | – | – | – | – | – | – | – | –

CCCCCn1cc[n+](C)c1.O=S(=O)([N-]S(=O)(=O)C(F)(F)F)C(F)(F)F + O
100 kPa, x2 = 0.2211
Details | viscosity [mPa·s]
313.15 K | 22.15
318.15 K | 18.86

CCCC[N+](CCCC)(CCCC)CCCC.O=S(=O)([O-])O + O
viscosity [mPa·s], 101 kPa
Details | x1 = 9.009e-05 | x1 = 0.0001802 | x1 = 0.0002702 | x1 = 0.0003603
298.15 K | 0.894 | 0.896 | 0.899 | 0.901
308.15 K | 0.723 | 0.726 | 0.728 | 0.73
318.15 K | 0.602 | 0.603 | 0.605 | 0.608

CCCC[n+]1ccn(C)c1.O=[N+]([O-])[O-] + O
Details | viscosity [mPa·s]
295.15 K, 101 kPa, x2 = 0.1659 | 73
308 K, 100 kPa, x1 = 0.4463 | 14.67
308 K, 100 kPa, x1 = 0.6298 | 29.49
313 K, 100 kPa, x1 = 0.05634 | 1.464
313 K, 100 kPa, x1 = 0.08219 | 2.196
313 K, 100 kPa, x1 = 0.2637 | 6.31

CCCn1cc[n+](CCC)c1.O=S(=O)([N-]S(=O)(=O)C(F)(F)F)C(F)(F)F + O
100 kPa, x2 = 0.2232
Details | viscosity [mPa·s]
303.15 K | 29.21
313.15 K | 20.49
333.15 K | 11.48
348.15 K | 8.09
363.15 K | 6

CCOS(=O)(=O)[O-].CC[N+]1(C)CCCCC1 + O
101 kPa
Details | viscosity [mPa·s]
298.15 K, x2 = 0.1867 | 690
298.15 K, x2 = 0.5338 | 97
298.15 K, x2 = 0.894 | 7.4
303.15 K, x2 = 0.894 | 6.2
308.15 K, x2 = 0 | 800
308.15 K, x2 = 0.4417 | 92
308.15 K, x2 = 0.8593 | 7.7
313.15 K, x2 = 0.4417 | 71
313.15 K, x2 = 0.8593 | 6.5
318.15 K, x2 = 0.3409 | 90
323.15 K, x2 = 0.2704 | 93
323.15 K, x2 = 0.7839 | 8.8
328.15 K, x2 = 0.2704 | 73
328.15 K, x2 = 0.7839 | 7.5
333.15 K, x2 = 0.1867 | 80
333.15 K, x2 = 0.7357 | 8.6
338.15 K, x2 = 0.1867 | 65
338.15 K, x2 = 0.7357 | 7.5
343.15 K, x2 = 0 | 100
343.15 K, x2 = 0.7357 | 6.8

CC[n+]1ccn(C)c1.F[P-](F)(F)(F)(F)F + O
viscosity [mPa·s], 100 kPa
Details | 298.15 K | 303.15 K | 308.15 K
x1 = 1.802e-05 | 0.919 | 0.85 | 0.777
x1 = 5.406e-05 | 0.933 | 0.855 | 0.782
x1 = 9.009e-05 | 0.948 | 0.86 | 0.787

C[N+](C)(C)CCO.O=C([O-])[C@@H]1CCCN1 + O
viscosity [mPa·s], 100 kPa
Details | x1 = 0.01436 | x1 = 0.02022 | x1 = 0.03417
308.15 K | 1.18 | 1.23 | –
338.15 K | – | – | 1.23

NCCOCCO + O + CCCC[n+]1ccn(C)c1.O=S(=O)([O-])C(F)(F)F
viscosity [mPa·s], 101 kPa
Details | 293.15 K | 298.15 K | 303.15 K | 308.15 K | 313.15 K | 318.15 K | 323.15 K | 328.15 K | 333.15 K
x1 = 0.182, x2 = 0.8049 | 11.31 | 9.2 | 7.59 | 6.34 | 5.37 | 4.581 | 3.959 | 3.457 | 3.052
x1 = 0.2233, x2 = 0.7322 | 15.97 | 12.84 | 10.48 | 8.66 | 7.252 | 6.139 | 5.248 | 4.534 | 3.956
x1 = 0.4053, x2 = 0.4752 | 28.79 | 22.55 | 17.99 | 14.6 | 12.01 | 10.05 | 8.52 | 7.25 | 6.179
